Results as given in patent publication US20070092475A1, “Methods for enhancing the morphology, tone, texture and/or appearance of skin using a Meadowestolide” (priority 2005, published 2007).

What was measured:
human skin [1] = assay: In vivo tissue hydration of the stratum corneum, Dermal Phase Meter 9003; details: one application neat (100%) to forearm, FIG. 3
Source text: (§1) TEWL and tissue hydration (of the stratum comeum) experiments were designed to evaluate the moisture retention properties of the Meadowestolide described in Example 1 in comparison with a relevant oil and a non-polymerized ester. Thus, for these studies, the natural oil to select as a control was Meadowfoam seed oil since it was the precursor oil from which the Meadowestolide was derived. […] Thus, in these experiments, the following substances were compared: (a) Meadowfoam seed oil (triglyceride oil); (b) a long-chain guerbet ester of meadowfoam fatty acid (CH3(CH2)9CH((CH)2O(CO)(CH2)22CH3)((CH2)7CH3); and (c) the Meadowestolide prepared in Example 1.
(§2) These experiments were conducted to assess and compare the moisturizing efficacy of the Meadowestolide and appropriate controls on human skin using a NOVA Technology Corporation (Portsmouth, N.H.) Dermal Phase Meter 9003 (DPM) and a ServoMed Evaporimeter (ServoMed, Sweden). The combined use of these instruments assesses the moisturizing and barrier enhancement properties of topically applied materials. […]
In the tissue hydration experiments, a Dermal Phase Meter 9003 was used to quantify moisture content in the stratum comeum (SC) by an electrical capacitance method. […] The Dermal Phase Meter 9003 numbers are directly related to the electrical capacitance of the skin measured as picoFarads (pF).

human skin [2] = assay: In vivo transepidermal water loss (TEWL), ServoMed Evaporimeter; details: one application neat (100%) to forearm, about 2 minutes; twenty subjects; FIG. 3
Source text: as §1, §2
A ServoMed Evaporimeter was used to measure transepidermal water loss (TEWL). A hand-held probe on this meter samples the relative humidity at two points above the skin surface, thereby allowing the rate of water loss to be calculated from the humidity gradient. Measurements are recorded as g/m2/hr. […]

[3] = Analytical results on purified Meadowestolide (stability); type: physicochemical
Source text: The purified Meadowestolide was identified and subsequently quantified by infrared spectroscopy and HPLC coupled with an evaporative light-scattering detector.

[4] = In vitro water binding experiments (water retention by loss on drying); type: physicochemical; details: for water retention (FIG. 1 and FIG. 2), in words: 3 ml substance over 10 ml distilled water, after mixing
Description: It was postulated that, as a result of the structure of the Meadowestolide prepared in Example 1, which has a carboxylic acid function and an ester linkage in juxtaposition to one another, a considerable degree of hydrogen-bonding and consequent water binding should be evident. Consequently, in vitro experiments to test this theory employing the Meadowestolide, as well as the carefully selected comparative control compounds described below, were conducted.
The Meadowestolide prepared in Example 1 (3 ml) and the control substances (3 ml) were carefully layered over distilled water (10 ml) using a long-nosed pipette, hand mixed for 30 seconds and photographed using a Sony Digital DSC-F505V Camera equipped with a Carl Zeiss Vario-Sonner lens. The degree of water retention was then examined by measuring the “loss on drying” (water removed from lipid phase […]). The upper lipid phase was completely removed using a long-nose pipette and analyzed for water content by “loss on drying” using a drying oven at 105 degrees centigrade until there was no longer any change in weight.

| Structure (SMILES) | tissue hydration, in comparison with Meadowfoam seed oil, in words (human skin [1]; about 2 minutes, twenty subjects) | hydration capability, in comparison with the guerbet ester of meadowfoam fatty acid, in words (human skin [1]; molecular sizes reasonably equivalent) | transepidermal water loss (TEWL), in words (human skin [2]) | stability [3] | water bound, relative to Jojoba oil ([4]; 3 ml substance layered over 10 ml distilled water, hand mixed 30 seconds, loss on drying of lipid phase at 105 degrees centigrade, vs Jojoba oil) | water bound, relative to Meadowfoam seed oil and meadowfoam fatty acid ([4]; 3 ml substance layered over 10 ml distilled water, hand mixed 30 seconds, loss on drying of lipid phase at 105 degrees centigrade, vs Meadowfoam seed oil and meadowfoam fatty acid) | water retention (FIG. 1 and FIG. 2), in words [4] |
| --- | --- | --- | --- | --- | --- | --- | --- |
| CCCCCCCCCCCCCC/C=C/CCCC(=O)OC(CCCCCCCCCCCCCCC)CCCC(=O)O (centres unmarked) [Meadowestolide] | improved hydration | hydration capability exceeds that of a simple ester | very efficient in preventing water loss | extended stability | approximately nine | approximately four | capable of binding water to a significant extent |
| CCCCCCCCCCCCCCCCC=CCCCC(=O)O [meadowfoam fatty acid, CH3—(CH2)15—(CH)2—(CH2)3—COOH, reference compound] |  |  |  |  |  |  | retained a small quantity of water |
